According to patent US20260266805A1, “METHOD AND COMPOSITIONS FOR ANALYZING TOXICITY IN ORGANISMS” (priority 2023, published 2026):
Several values for one entry are separate records, joined by “and”; a condition that tells them apart may be missing. Equal entries are not always repeated. Where two headings read alike, the source gives them in different places.

Key:
C. elegans = test: Nile red (NR) staining of stored body lipids in vivoChip; format: in vivo; conditions: co-cultured for the entire 72 hours, versus control worms
Description: Liquid culture of C. elegans: Worms are synchronized by bleaching a population of gravid C. elegans using the hypochlorite solution. The embryos are then incubated in a glass tube and rotated for 24 hours at 20° C. About 80 larval 1 (L1) worms are plated into a standard 24-well plastic plate with 500 μl S media and HB101 bacteria. The worms are exposed to chemicals or ingredients during the growth in the liquid media for 3 days in a 20° C. incubator.
Imaging of C. elegans using vivoChip: The C. elegans are fed with bacteria and treated with test chemicals for 72 hours in a 20° C. incubator. […] The vivoChip technology allows capture of bright field or fluorescence images from the worms immobilized inside the microfluidic channels.
Nile red (NR) staining to study body lipids: To stain lipid molecules in the C. elegans body, 30 ng/ml and 50 ng/mL were added to the liquid culture at the L1 stage (a total of 72-hour incubation) and L4 stage animals (a total of 24-hour incubation) and maintained the plate at 20° C. […] Bright-field and fluorescence (red filter set) were acquired to capture worm development and the stored lipids in the C. elegans populations.
Analysis of NR signal: The individual channels were analyzed to identify the NR signal, mainly within the worm intestinal […] (FIG. 23A). […]

wild-type N2 worms = test: Pilot DART imaging of N2 worms treated with FUdR in a small-scale vivoChip; format: in vivo, C. elegans; conditions: for EC50: Caenorhabditis elegans, N2 L1 larvae, 0-10,000 μM, 72 hrs at 20° C., D1 adults
Description: (§1) Strains and maintenance: The study used the N2 wild type (The Caenorhabditis Natural Diversity Resource, CaeNDR) for all experiments except for the initial vivoChip-2× pilot study, where the study used N2 wild types from the Caenorhabditis Genetics Center (CGC). C. elegans were maintained using the standard methods on nematode growth media (NGM) plates seeded with HB101 Escherichia coli bacteria and maintained at 20° C.. Frozen stocks of strains were also maintained at −80° C. and thawed each year to generate a new set of Dauer plates. Sealed Dauer plates for each strain were stored at 16° C. and used to start a fresh maintenance culture every 3 months by chunking to avoid genetic drift. Worms were cultured for >5 generations before using them for assays in a temperature and humidity-controlled environment.
(§2) Worm synchronization and large-scale culture: To prepare large numbers of synchronized L1 stage larvae, P0 larval 4 (L4) worms were transferred to NGM plates and grown for 96 hrs till the F1 generation reached maturity, removing the P0 adults after 48 hrs. D1 animals were treated with an alkaline sodium hypochlorite solution with periods of slow and high-speed shaking on a speed-controllable vortex to fragment their bodies and release the embryos before the bleaching solution was neutralized with 5 washes of M9. The eggs were allowed to develop and hatch in the M9 buffer in a rotating glass conical tube for 24 hrs. Hatched synchronized L1s were filtered through a 20 μm cell filter to remove unhatched eggs and debris, counted the number of total larvae, and adjusted the volume to make a final suspension of L1 larvae at a density of ~100 L1s/20 μl.
(§3) Chemical treatment in liquid culture: The age-synchronized L1 suspension (~100 larvae in 20 μl volumes) was placed in a standard 24-well plate with 480 μl HB101 (OD600^=3.0) suspension in S media. 2.5 μl of chemicals dissolved in H2O, or 1 μL of the chemicals in DMSO were added to the designated wells, keeping solvent concentration constant across all wells. Vehicle control wells received the same volume of each solvent (H2O or 0.2% DMSO). […]
For the initial testing of this hypothesis, this study explored the response of wild-type N2 worms when treated various doses of 5-Fluoro-2′-deoxyuridine (FUdR), a drug commonly used to prevent the development of live offspring in C. elegans experimental cultures. […] The length of all worms in each concentration were manually measured by taking the distance from the head to the tail of each animal. The study counted the total number of embryos and the number of embryos visibly moving within the eggshells in each worm through the time stacks (FIGS. 1C-1E).

CL2166 strain = conditions: CL2166, 5.66 μl of 3% H2O2 in 500 μl culture at 68 hours, 4 hours exposure
Description: Image analysis of the C. elegans body and fluorescence signal: The images from the vivoChip platform were cropped into individual channels. The study determined the best focal plane for each worm image (bright-field images) from the stack of images. Individual channel image was analyzed using machine-learning algorithms (developed by vivoVerse) to predict the mask for the worm body inside the individual microfluidic channel. Since several organs in the worm body have a 3D architecture, the study created a maximum-intensity projection of multiple z-slice fluorescence images. Using the maximum projection image, the study then calculated the integrated fluorescence signal within the predicted body mask. The study also estimated the background signal from the pixels outside the body mask and within two successive channel regions. The background signal was used to estimate the corrected total C. elegans fluorescence (CTCF)=integrated density−(area of selected C. elegans body×fluorescence of background readings)
The study treated a transgenic strain expressing GFP when exposed to oxidative stress to quantify the stress level in individual worms using high-resolution imaging to quantify sub-lethal changes in the stress levels.
5.66 μl of 3% H2O2 was added to the 500 μl S media culture with worms at 68 hours to induce oxidative stress. […]

C. elegans pharynx = test: Pharynx size analysis from bright field images in vivoChip; format: in vivo; conditions: D1 adults, 1.6 μM, DMSO (0.25%), treated from L1 stage
From the text: FIGS. 25A-25C depict identifying C. elegans organs and organ structures using high-resolution, bright field, and fluorescence images using the vivoChip platform. […] The schematic represents different organs that could be identified and analyzed using image processing or automated machine learning algorithms.
Identifying internal organs and organ structures of C. elegans using bright field and fluorescence images: Overall morphology of changes in different tissues within a C. elegans body. Due to the dynamic nature of the tissue architectures, it is expected to change over the animal's age. This approach was used to track tissue architecture during early adult stage C. elegans quantitatively (FIG. 25A). As an example, the study analyzed the pharynx within the C. elegans immobilized inside the vivoChip. […] This well-studied organ has been used to screen several therapeutic drugs and to characterize the amount of food intake readouts. […]
C. elegans pharynxes present in the best focal plane from individual channels were manually segmented. […] Once the C. elegans body is detected, specific organs can be characterized using the fluorescence reporter (transgenic strains) or fluorescent dyes (feeding or soaking with dye). For example, C. elegans were fed with FITC-dextran overnight to visualize the green signal using fluorescence imaging of device-immobilized animals. […]

C. elegans N2 wild type = test: vivoChip-24x C. elegans DART assay (72 hr liquid culture from L1, 4D imaging of D1 adults); format: in vivo
Description: as §1
Food preparation: HB101 was streaked on a Luria-Bertani (LB) agar plate with streptomycin (antibiotic) and incubated overnight at 37° C. to generate single colonies. One colony was picked and used to inoculate an overnight 5 mL starter culture in LB broth and antibiotic. 200 μl of this starter culture was added to 200 mL LB broth/streptomycin in a 1000 mL baffled flask and incubated for 18 h with 180 rotations per min (rpm) shaking to reach the end of the log growth phase. OD600 was measured using an Implen DiluPhotometer, and the culture was stored at 4° C. Immediately before worm culture, a sufficient volume of the bacterial culture was centrifuged to generate the required volume of OD600^=3.0 food suspension. The LB supernatant was removed and the pellet was resuspended in S media. This density was optimal for growing 80-100 larval 1 (L1) to the day 1 (D1) adult stage in a 500 μl culture volume with food remaining after 72 hrs, but not so much residual food particles as to interfere with imaging or chip operation.
Chemicals: Methylmercury (II) hydroxide (CH3Hg, Alfa Aesar, CAS #1184-57-2) and 5-Fluoro-2′-deoxyuridinc (FUdR, TCI Chemical, CAS #50-91-9) were dissolved in ultrapure water as master stocks at 200× highest treatment concentration. Propiconazole (Sigma Aldrich, CAS #60207-90-1) was dissolved in dimethylsulfoxide (Sigma Aldrich, CAS #67-68-5) as master stocks at 500× highest treatment concentration. The master stocks were transferred into 0.2 ml tubes as single-use aliquots and kept at −80° C. until needed. The 1 μM dose of CH3Hg was prepared by diluting the stock in ultrapure water prior to the treatment. For the dose-response assays, propiconazole was diluted immediately prior to treatment by serial dilution in DMSO to 500× working dilutions as needed, so that the final DMSO concentration in each well would be 0.2%. DMSO was also added to both the solvent control wells and the CH3Hg control wells to 0.2%.
as §2
as §3, with “wells.” for “wells. Vehicle control wells received the same volume of each solvent (H2O or 0.2% DMSO).”

Daphnia = conditions: cited from earlier work
Fathead minnow = conditions: cited from earlier work

## NCCc1c[nH]c2ccc(O)cc12 [5-HT, serotonin]
C. elegans
  amount of lipids in the body visualized using NR staining: significantly lower amount of lipids

## O=c1[nH]c(=O)n([C@H]2C[C@H](O)[C@@H](CO)O2)cc1F [FUdR, 5-Fluoro-2′-deoxyuridine]
wild-type N2 worms; read-out: moving embryo parameter, EC50
  EC50: 26 µM
wild-type N2 worms; read-out: reduction in body length, EC50
  EC50: 316 µM
wild-type N2 worms; read-out: reduction in the number of total embryos, EC50
  EC50: 98 µM
wild-type N2 worms; N2 C. elegans, 0-10000 μM
  concentration causing growth arrest at stages earlier than could be immobilized in the chip: ≥ 500 µM

## OO [H2O2, hydrogen peroxide]
CL2166 strain
  increase of GFP intensity: ~ 60%

## CCOP(=S)(OCC)Oc1nc(Cl)c(Cl)cc1Cl [chlorpyrifos]
C. elegans pharynx
  total pixels of pharynx compared to vehicle control (DMSO): reduced

## CCCC1COC(Cn2cncn2)(c2ccc(Cl)cc2Cl)O1 (stereo not drawn) [propiconazole]
C. elegans N2 wild type; N2, 72 hrs
  concentration at which reduced growth rate left worms too small to be immobilized in the microfluidic channels: ≥ 333 UM
C. elegans N2 wild type; N2, L1 to D1, 72 hrs, Hill fit
  body length EC10: 117.5 µM
  body volume EC10: 74.9 µM
  developed (moving+folded) embryos EC10: 10.9 µM
  moving embryos EC10: 10 µM
  total embryos EC10: 48.8 µM
Daphnia
  concentration from which embryonic development was affected: ≥ 0.5 mg/L and ≥ 1.46 μM
Fathead minnow
  concentration from which fecundity was affected: ≥ 0.5 mg/L and ≥ 1.46 μM
